US10933008B1, “Silicon-based cannabidiol derivatives and compositions thereof” (Gelest Technologies, Inc., priority 2015, dated 2021)

Tests used:
[1] = Solubility study in common oils, silicones and water; assay type: physicochemical
Source text: It may be concluded that the CBD isolate was soluble in all oils and insoluble in all silicones and water. The CBD derivatives were insoluble in water and soluble in both oils and silicones (heating was required for the derivative of Example 1). […] Thus, the presence of the silicon-containing groups increased the solubility of CBD in all silicones tested.

[2] = Release of CBD from the infused silicone elastomer on water washes, TLC analysis; assay type: physicochemical; conditions: hydrolyzed sample and water washes compared to CBD isolate
Procedure: A solution was prepared by adding 5 g of the trisiloxanyl-cannabidiol product (IV) prepared in Example 3 and 5 g of n-propylheptamethyltrisiloxane (commercially available from Gelest) to a 20 ml vial. Sample 1 was prepared by inserting apiece of silicone elastomer (1.5 cm×2.5 cm, 0.35 g, commercially available from Gelest) into a 20 ml vial containing the solution and letting the vial sit with a closed lid for 30 minutes to absorb the solution into the elastomer. Sample 2 (control) was an identical piece of silicone elastomer which was inserted into a 20 ml vial containing hemp seed oil and let sit with a closed lid for 30 minutes to absorb the hemp oil into the elastomer.
Sample 1 was washed in water three consecutive times. For each wash, the sample was placed in a vial containing 10 g of DI water and shaken for 10 seconds. The water from each wash was collected and analyzed for the presence of CBD using a basic thin-layer chromatography (TLC) method using 20% ethyl acetate in hexanes. CBD isolate was compared to a hydrolyzed sample of trisiloxanyl-cannabidiol product (IV) as well as all three washes.

## C=C(C)[C@@H]1CCC(C)=C[C@H]1c1c(O)cc(CCCCC)cc1O [CBD, 2-[(1R,6R)-3-methyl-6-(1-methylethenyl)-2-cyclohexen-1-yl]-5-pentyl-1,3-benzenediol, reference compound]
[1]; all oils tested
  Solubility in oils: soluble
[1]; all silicones tested
  Solubility in silicones: insoluble
[1]; water
  Solubility in water: insoluble

## CCCCCc1cc(O)c([C@H]2C=C(C)CC[C@H]2C(C)C[Si](C)(C)O[Si](C)(C)O[Si](C)(C)O[Si](C)(C)O[Si](C)(C)CCCC)c(O)c1 (stereo partly drawn) [Example 2, 2-[(1R,6R)-3-Methyl-6-(1-methyl-2-(1-butyl-1,1,3,3,5,5,7,7-octamethyltetrasiloxy-dimethylsilyl)ethyl)-2-cyclohexen-1-yl]-5-pentyl-1,3-benzenediol]
[1]; castor oil, even with partial heating
  Solubility in castor oil: only partially soluble

## C=C(C)[C@@H]1CCC(C)=C[C@H]1c1c(O)cc(CCCCC)cc1O[Si](C)(O[Si](C)(C)C)O[Si](C)(C)C [Example 3, 2-[(1R,6R)-3-Methyl-6-(1-methylethenyl)-2-cyclohexen-1-yl]-5-pentyl-1-(bis(trimethylsiloxy)methylsiloxy)-3-ol-benzene]
[2]
  Hydrolysis to release CBD (TLC): underwent hydrolysis to release CBD
